In test [1] the target is T1, human MetAP2 enzyme (Homo sapiens, UniProt P50579). As to the kind of experiment: MetAP2 enzyme assay, enzyme complexed with manganese ions. The conditions noted are these: MetAP2 Mn pIC50, MetAP2 enzyme complexed with manganese ions; Met-AMC substrate at Km.
Test [2] has as its target T1, human MetAP2 enzyme. As to the kind of experiment: MetAP2 enzyme assay, enzyme complexed with cobalt ions. The note with it: MetAP2 Co pIC50, MetAP2 enzyme complexed with cobalt ions; Met-AMC substrate at Km.

As a reminder, the IC50 is the point on the concentration scale where inhibition reaches its midpoint.

T1 sequence (P50579 whole entry): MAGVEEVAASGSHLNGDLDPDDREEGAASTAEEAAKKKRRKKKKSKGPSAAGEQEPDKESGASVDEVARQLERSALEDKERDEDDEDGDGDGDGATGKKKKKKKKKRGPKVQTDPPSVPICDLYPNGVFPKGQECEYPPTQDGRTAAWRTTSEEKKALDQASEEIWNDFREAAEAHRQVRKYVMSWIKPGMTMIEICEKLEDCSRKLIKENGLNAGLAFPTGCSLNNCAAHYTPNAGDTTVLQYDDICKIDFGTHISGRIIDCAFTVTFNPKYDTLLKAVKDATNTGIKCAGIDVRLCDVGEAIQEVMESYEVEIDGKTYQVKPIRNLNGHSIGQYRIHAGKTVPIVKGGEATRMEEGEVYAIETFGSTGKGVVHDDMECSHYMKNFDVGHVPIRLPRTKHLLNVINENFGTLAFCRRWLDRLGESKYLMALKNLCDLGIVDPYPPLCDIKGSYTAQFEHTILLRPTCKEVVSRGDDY

Consider `COc1ncc(-c2cc(C(F)(F)F)cc3[nH]ncc23)c(N)n1` [Example 256, 2-methoxy-5-(6-(trifluoromethyl)-1H-indazol-4-yl)pyrimidin-4-amine], for which the half-inhibitory concentration (IC50) against human MetAP2 enzyme [1] was 0.01 µM; against human MetAP2 enzyme [2], 0.126 µM.
Taken in the same sequence, the figures for `Cc1nc(NS(C)(=O)=O)ccc1-c1cc(C(F)(F)F)cc2[nH]ncc12` [Example 257, N-(6-methyl-5-(6-(trifluoromethyl)-1H-indazol-4-yl)pyridin-2-yl)methanesulfonamide] were 0.00794 µM and 0.0501 µM.
Taken in the same sequence, the figures for `COCC(=O)Nc1ccc(-c2cc(C(F)(F)F)cc3[nH]ncc23)c(C)n1` [Example 258, 2-methoxy-N-(6-methyl-5-(6-(trifluoromethyl)-1H-indazol-4-yl)pyridin-2-yl)acetamide] were 0.00794 µM and 0.0251 µM.
`Cc1nc(NS(=O)(=O)c2cnn(C)c2)ccc1-c1cc(C(F)(F)F)cc2[nH]ncc12` [Example 259, 1-methyl-N-(6-methyl-5-(6-(trifluoromethyl)-1H-indazol-4-yl)pyridin-2-yl)-1H-pyrazole-4-sulfonamide]: the IC50 was 0.00794 µM against human MetAP2 enzyme [1] and 0.0316 µM at human MetAP2 enzyme [2].
For `CCOC(=O)Cn1cc(-c2cc(C(F)(F)F)cc3[nH]ncc23)cn1` [Example 260, ethyl 2-(4-(6-(trifluoromethyl)-1H-indazol-4-yl)-1H-pyrazol-1-yl)acetate] the same measures were 0.00631 µM and 0.1 µM.
For `O=C(O)Cn1cc(-c2cc(C(F)(F)F)cc3[nH]ncc23)cn1` [Example 261, 2-(4-(6-(trifluoromethyl)-1H-indazol-4-yl)-1H-pyrazol-1-yl)acetic acid] the same measures were 0.0398 µM and 1 µM.
For `O=C(c1ccc(-c2cc(C(F)(F)F)cc3[nH]ncc23)cn1)N1CCOCC1` [Example 262, morpholino(5-(6-(trifluoromethyl)-1H-indazol-4-yl)pyridin-2-yl)methanone] the same measures were 0.01 µM and 0.2 µM.
On to `COC(=O)c1ccc(OC)c(-c2cc(C(F)(F)F)cc3[nH]ncc23)c1` [Example 263, methyl 4-methoxy-3-(6-(trifluoromethyl)-1H-indazol-4-yl)benzoate], for which the half-inhibitory concentration (IC50) against human MetAP2 enzyme [1] was 0.0158 µM; on human MetAP2 enzyme [2] it was 0.02 µM.
Consider `NC(=O)Cn1cc(-c2cc(C(F)(F)F)cc3[nH]ncc23)cn1` [Example 264, 2-(4-(6-(trifluoromethyl)-1H-indazol-4-yl)-1H-pyrazol-1-yl)acetamide], for which the IC50 was 0.00631 µM at human MetAP2 enzyme [1] and 0.1 µM on human MetAP2 enzyme [2].
On to `COC(=O)c1c[nH]c(=O)c(-c2cc(C(F)(F)F)cc3[nH]ncc23)c1` [Example 265, methyl 6-oxo-5-(6-(trifluoromethyl)-1H-indazol-4-yl)-1,6-dihydropyridine-3-carboxylate], for which the IC50 was 0.01 µM on human MetAP2 enzyme [1] and 0.1 µM at human MetAP2 enzyme [2].
With `COc1ccc(C(=O)N2CCN(C)CC2)cc1-c1cc(C(F)(F)F)cc2[nH]ncc12` [Example 266, (4-methoxy-3-(6-(trifluoromethyl)-1H-indazol-4-yl)phenyl)(4-methylpiperazin-1-yl)methanone], the figures for the IC50 on human MetAP2 enzyme [1] and against human MetAP2 enzyme [2] were 0.0126 µM and 0.0631 µM, respectively.
Regarding `COc1ccc(C(=O)N2CCOCC2)cc1-c1cc(C(F)(F)F)cc2[nH]ncc12` [Example 267, (4-methoxy-3-(6-(trifluoromethyl)-1H-indazol-4-yl)phenyl)(morpholino)methanone], the results for the IC50 at human MetAP2 enzyme [1] and at human MetAP2 enzyme [2] were 0.01 µM and 0.0398 µM, respectively.
Taken in the same sequence, the figures for `COc1ccc(C(=O)NCCO)cc1-c1cc(C(F)(F)F)cc2[nH]ncc12` [Example 268, N-(2-hydroxyethyl)-4-methoxy-3-(6-(trifluoromethyl)-1H-indazol-4-yl)benzamide] were 0.0158 µM and 0.0398 µM.
Taken in the same sequence, the figures for `COC(=O)c1ccc(-c2cc(C(F)(F)F)cc3[nH]ncc23)cn1` [Example 269, methyl 5-(6-(trifluoromethyl)-1H-indazol-4-yl)picolinate] were 0.00398 µM and 0.0631 µM.
Taken in the same sequence, the figures for `O=C(NCCO)c1ccc(-c2cc(C(F)(F)F)cc3[nH]ncc23)cn1` [Example 270, N-(2-hydroxyethyl)-5-(6-(trifluoromethyl)-1H-indazol-4-yl)picolinamide] were 0.00316 µM and 0.0398 µM.
For the compound `CN1CCN(C(=O)c2ccc(-c3cc(C(F)(F)F)cc4[nH]ncc34)cn2)CC1` [Example 271, (4-methylpiperazin-1-yl)(5-(6-(trifluoromethyl)-1H-indazol-4-yl)pyridin-2-yl)methanone], the results for the 50% inhibitory concentration (IC50) against human MetAP2 enzyme [1] and at human MetAP2 enzyme [2] were 0.0126 µM and 0.316 µM, respectively.
Taken in the same sequence, the figures for `COc1ccc(C(=O)N(C)C)cc1-c1cc(C(F)(F)F)cc2[nH]ncc12` [Example 272, 4-methoxy-N,N-dimethyl-3-(6-(trifluoromethyl)-1H-indazol-4-yl)benzamide] were 0.01 µM and 0.0398 µM.
Consider `COc1ccc(C(N)=O)cc1-c1cc(C(F)(F)F)cc2[nH]ncc12` [Example 273, 4-methoxy-3-(6-(trifluoromethyl)-1H-indazol-4-yl)benzamide], for which the IC50 against human MetAP2 enzyme [1] is 0.00398 µM; against human MetAP2 enzyme [2], 0.02 µM.
For `Cc1nn(CC(N)=O)cc1-c1cc(C(F)(F)F)cc2[nH]ncc12` [Example 274, 2-(3-methyl-4-(6-(trifluoromethyl)-1H-indazol-4-yl)-1H-pyrazol-1-yl)acetamide] the same measures were 0.00398 µM and 0.0631 µM.
Taken in the same sequence, the figures for `FC(F)(F)c1cc(-c2cnc3ccnn3c2)c2cn[nH]c2c1` [Example 275, 6-(6-(trifluoromethyl)-1H-indazol-4-yl)pyrazolo[1,5-a]pyrimidine] were 0.00501 µM and 0.126 µM.
Regarding `NC(=O)c1ccc2ncc(-c3cc(C(F)(F)F)cc4[nH]ncc34)n2n1` [Example 276, 3-(6-(trifluoromethyl)-1H-indazol-4-yl)imidazo[1,2-b]pyridazine-6-carboxamide], the IC50 is 0.0398 µM at human MetAP2 enzyme [1] and 0.398 µM on human MetAP2 enzyme [2].
Take `Cc1nn(CC(=O)N2CCOCC2)cc1-c1cc(C(F)(F)F)cc2[nH]ncc12` [Example 277, 2-(3-methyl-4-(6-(trifluoromethyl)-1H-indazol-4-yl)-1H-pyrazol-1-yl)-1-morpholinoethanone]: the half-maximal inhibitory concentration (IC50) on human MetAP2 enzyme [1] is 0.00501 µM; against human MetAP2 enzyme [2] it was 0.0631 µM.
For `Cn1cc(-c2cc(C(F)(F)F)cc3[nH]ncc23)c(=O)[nH]c1=O` [Example 278, 1-methyl-5-(6-(trifluoromethyl)-1H-indazol-4-yl)pyrimidine-2,4(1H,3H)-dione] the same measures were 0.01 µM and 0.631 µM.
Regarding `Cc1nn(CC(=O)NCCO)cc1-c1cc(C(F)(F)F)cc2[nH]ncc12` [Example 279, N-(2-hydroxyethyl)-2-(3-methyl-4-(6-(trifluoromethyl)-1H-indazol-4-yl)-1H-pyrazol-1-yl)acetamide], the results for the IC50 against human MetAP2 enzyme [1] and against human MetAP2 enzyme [2] were 0.00501 µM and 0.0501 µM, respectively.
`CN(C)CCOc1ccc(-c2cc(C(F)(F)F)cc3[nH]ncc23)cc1` [Example 280, N,N-dimethyl-2-(4-(6-(trifluoromethyl)-1H-indazol-4-yl)phenoxy)ethanamine]: the IC50 at human MetAP2 enzyme [1] is 0.00631 µM; on human MetAP2 enzyme [2] it was 0.0316 µM.
For `FC(F)(F)c1cc(-c2ccc(OCCN3CCOCC3)cc2)c2cn[nH]c2c1` [Example 281, 4-(2-(4-(6-(trifluoromethyl)-1H-indazol-4-yl)phenoxy)ethyl)morpholine] the same measures were 0.00794 µM and 0.0631 µM.
Taken in the same sequence, the figures for `CN1CCN(C(=O)c2cc(-c3cc(C(F)(F)F)cc4[nH]ncc34)cnc2N)CC1` [Example 282, (2-amino-5-(6-(trifluoromethyl)-1H-indazol-4-yl)pyridin-3-yl)(4-methylpiperazin-1-yl)methanone] were 0.00631 µM and 0.0501 µM.
Taken in the same sequence, the figures for `NC(=O)c1cc(-c2cc(C(F)(F)F)cc3[nH]ncc23)ccn1` [Example 283, 4-(6-(trifluoromethyl)-1H-indazol-4-yl)picolinamide] were 0.00398 µM and 0.0631 µM.
As to `CN1CCN(C(=O)c2cc(-c3cc(C(F)(F)F)cc4[nH]ncc34)ccn2)CC1` [Example 284, (4-methylpiperazin-1-yl)(4-(6-(trifluoromethyl)-1H-indazol-4-yl)pyridin-2-yl)methanone], the IC50 against human MetAP2 enzyme [1] was 0.00794 µM; against human MetAP2 enzyme [2] it was 0.0794 µM.
For `COc1ncc(-c2cc(C(F)(F)F)cc3[nH]ncc23)cc1C(=O)NCCO` [Example 285, N-(2-hydroxyethyl)-2-methoxy-5-(6-(trifluoromethyl)-1H-indazol-4-yl)nicotinamide] the same measures were 0.00398 µM and 0.0501 µM.
For `O=C(NCCO)c1ncc(-c2cc(C(F)(F)F)cc3[nH]ncc23)cn1` [Example 286, N-(2-hydroxyethyl)-5-(6-(trifluoromethyl)-1H-indazol-4-yl)pyrimidine-2-carboxamide] the same measures were 0.00794 µM and 0.2 µM.
As to `CN1CCN(C(=O)c2cncc(-c3cc(C(F)(F)F)cc4[nH]ncc34)c2)CC1` [Example 287, (4-methylpiperazin-1-yl)(5-(6-(trifluoromethyl)-1H-indazol-4-yl)pyridin-3-yl)methanone], the IC50 against human MetAP2 enzyme [1] is 0.00398 µM; against human MetAP2 enzyme [2] it was 0.0631 µM.
For `COc1ncc(-c2cc(C(F)(F)F)cc3[nH]ncc23)cc1C(=O)N1CCN(C)CC1` [Example 288, (2-methoxy-5-(6-(trifluoromethyl)-1H-indazol-4-yl)pyridin-3-yl)(4-methylpiperazin-1-yl)methanone] the same measures were 0.00501 µM and 0.0316 µM.
For `CN1CCN(C(=O)c2cc(-c3cc(C(F)(F)F)cc4[nH]ncc34)cnc2F)CC1` [Example 289, (2-fluoro-5-(6-(trifluoromethyl)-1H-indazol-4-yl)pyridin-3-yl)(4-methylpiperazin-1-yl)methanone] the same measures were 0.00631 µM and 0.1 µM.

Source of the values: US9434743B2, “Indazole derivatives” (TAKEDA PHARMACEUTICAL COMPANY LIMITED, priority 2012, dated 2016).
